Experiment in all cases: growth of human tumour cells (NCI), 48 h
For test [1], the system named is MDA-MB-435.
Test [2] deals with A498 renal.
For test [3], the system named is SF-539 CNS.
Test [4] relates to OVCAR-4 ovarian.
Test [5] relates to CAKI-1 renal.
Test [6] deals with NCI-H23 lung.
The test system of test [7] is T-47D breast.
Test [8] relates to SNB-75 CNS.
Test [9] has as its system BT-549 breast.
Test [10] has as its system UACC-62 melanoma.
Test [11] deals with RPMI-8226 leukemia.

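A five-concentration, 48-hour dose response in 96-well plates underlies each endpoint, interpolated linearly between surrounding concentrations. TGI: total growth inhibition.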

Regarding `C=CCCC(=O)CC(O)(C(F)(F)F)C(F)(F)F`, the TGI in test [1], in [2], in test [3], in test [4], in test [5] and in test [6] was > 100 µM each time. For the same compound, the TGI in test [7], in test [8], in test [9], in [10] and in [11] was > 100 µM each time.

In the case of `N#Cc1c(-c2ccccc2)nc(-c2ccccc2)sc1=S`, the TGI in test [1], in test [2], in test [3], in test [4], in [5] and in test [6] was > 100 µM throughout. For the same compound, the TGI in test [7], in test [8], in [9], in test [10] and in test [11] was > 100 µM each time.

`CC(=O)O[C@H]1CC[C@@]2(C)C(=CC[C@H]3[C@@H]4C[C@H](N5CCCC5)[C@H](OC(C)=O)[C@@]4(C)CC[C@@H]32)C1`: the TGI in [1] is 82.4 µM; in [2], > 100 µM; in test [3] it was > 65.3 µM; in test [4], > 100 µM; in test [5], > 100 µM; in test [6], > 100 µM. For the same compound, the TGI in test [7], in test [8], in test [9], in test [10] and in test [11] was > 100 µM in each case.

In the case of `Cc1cn(C2CC(n3cc(Cn4cc(Br)c(=O)[nH]c4=O)nn3)C(CO)O2)c(=O)[nH]c1=O` (stereo not drawn), the TGI in [1], in test [2], in test [3], in [4], in [5] and in test [6] was > 100 µM each time. The TGI in test [7], in test [8], in [9], in test [10] and in test [11] was > 100 µM each time.

Regarding `O=C(O)c1ccc(S(=O)(=O)c2ccccc2[N+](=O)[O-])cc1`, the TGI in [1], in [2], in test [3], in [4], in test [5] and in [6] was > 10 µM throughout. In addition, the TGI in test [7], in [8], in [9], in [10] and in [11] was > 10 µM each time.

For the compound `CC1=NN(c2ccc(S(=O)(=O)O)cc2)C2(C1)SCC(=O)N2c1nc2ccccc2s1` (stereo not drawn), the TGI in [1], in [2], in [3], in test [4], in test [5] and in test [6] was > 100 µM throughout. In addition, the TGI in test [7], in [8], in test [9], in test [10] and in test [11] was > 100 µM in each case.

As for `COc1ccc(Nc2nc(NS(=O)(=O)c3cc(C)c(Cl)cc3S)n[nH]2)cc1`, the TGI in test [1], in test [2], in [3], in test [4], in test [5] and in test [6] was > 100 µM in each case. The TGI in [7], in test [8], in test [9], in [10] and in test [11] was > 100 µM throughout.

On to `CN(O)C(=O)c1cccc(Cl)c1`, for which the TGI in test [1], in test [2], in test [3], in test [4], in test [5] and in [6] was > 100 µM in each case. In addition, the TGI in [7], in test [8], in test [9], in [10] and in test [11] was > 100 µM each time.

Values taken from PubChem BioAssay (NCI).
